In PubChem BioAssay AID1963976 (Molecular Pharmacology Branch, DTP, NCI, 2024):
Several values for one entry are separate records, joined by “and”; a condition that tells them apart may be missing. Identical values can stand only once.

Tested on: 435261-313-R-J1-PDC tumor spheroid viability
Assay: Anticancer human tumor 435261-313-R-J1-PDC patient-derived colon adenocarcinoma cell line growth inhibition [PI3K]
Details: spheroids with HUVEC and MSC; for viability, T/C: stronger effect = lower value
Outline: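 Tumor cells grown as multi-cell spheroids with HUVEC endothelial cells and MSC fibroblast-like stroma were treated with targeted agents combined with inavolisib, alpelisib, duvelisib or copanlisib. Doses fell in half-log steps from near clinical Cmax, else from 10 microM. Viability was measured.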

[1] = curve of first compound, second compound 0.0316 µM
[2] = curve of first compound, second compound 0.1 µM
[3] = curve of first compound, second compound 0.316 µM
[4] = curve of first compound, second compound 1 µM
[5] = curve of first compound, second compound 3.16 µM
[6] = curve of first compound, second compound 10 µM
[7] = second compound 0.0316 µM, first compound 0.0316 µM
[8] = second compound 0.0316 µM, first compound 0.1 µM
[9] = second compound 0.0316 µM, first compound 0.316 µM
[10] = second compound 0.0316 µM, first compound 1 µM
[11] = second compound 0.0316 µM, first compound 3.16 µM
[12] = second compound 0.0316 µM, first compound 10 µM
[13] = second compound 0.1 µM, first compound 0.0316 µM
[14] = second compound 0.1 µM, first compound 0.1 µM
[15] = second compound 0.1 µM, first compound 0.316 µM
[16] = second compound 0.1 µM, first compound 1 µM
[17] = second compound 0.1 µM, first compound 3.16 µM
[18] = second compound 0.1 µM, first compound 10 µM
[19] = second compound 0.316 µM, first compound 0.0316 µM
[20] = second compound 0.316 µM, first compound 0.1 µM
[21] = second compound 0.316 µM, first compound 0.316 µM
[22] = second compound 0.316 µM, first compound 1 µM
[23] = second compound 0.316 µM, first compound 3.16 µM
[24] = second compound 0.316 µM, first compound 10 µM
[25] = second compound 1 µM, first compound 0.0316 µM
[26] = second compound 1 µM, first compound 0.1 µM
[27] = second compound 1 µM, first compound 0.316 µM
[28] = second compound 1 µM, first compound 1 µM
[29] = second compound 1 µM, first compound 3.16 µM
[30] = second compound 1 µM, first compound 10 µM
[31] = second compound 3.16 µM, first compound 0.0316 µM
[32] = second compound 3.16 µM, first compound 0.1 µM
[33] = second compound 3.16 µM, first compound 0.316 µM
[34] = second compound 3.16 µM, first compound 1 µM
[35] = second compound 3.16 µM, first compound 3.16 µM
[36] = second compound 3.16 µM, first compound 10 µM
[37] = second compound 10 µM, first compound 0.0316 µM
[38] = second compound 10 µM, first compound 0.1 µM
[39] = second compound 10 µM, first compound 0.316 µM
[40] = second compound 10 µM, first compound 1 µM
[41] = second compound 10 µM, first compound 3.16 µM
[42] = second compound 10 µM, first compound 10 µM
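Note: spheroids exposed to compounds for 7 days.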

Compound: CC(C)NCC(C(=O)N1CCN(c2ncnc3c2C(C)CC3O)CC1)c1ccc(Cl)cc1 (stereo not given) + CC(Nc1ncnc2nc[nH]c12)c1cc2cccc(Cl)c2c(=O)n1-c1ccccc1
- IC50 [1]: 4.13 µM
- IC50 [2]: 6.39 µM
- IC50 [3]: 3.72 µM
- IC50 [4]: 4.82 µM
- IC50 [5]: 4.51 µM
- IC50 [6]: 0.775 µM
- viability, T/C [7]: 98.3%
- viability, T/C [8]: 102%
- viability, T/C [9]: 101%
- viability, T/C [10]: 76.7%
- viability, T/C [11]: 60%
- viability, T/C [12]: 24.4%
- viability, T/C [13]: 104%
- viability, T/C [14]: 88.9%
- viability, T/C [15]: 91.2%
- viability, T/C [16]: 102%
- viability, T/C [17]: 71.5%
- viability, T/C [18]: 36.3%
- viability, T/C [19]: 130%
- viability, T/C [20]: 88.7%
- viability, T/C [21]: 77.6%
- viability, T/C [22]: 67.7%
- viability, T/C [23]: 72.5%
- viability, T/C [24]: 26%
- viability, T/C [25]: 98.1%
- viability, T/C [26]: 93.9%
- viability, T/C [27]: 68.1%
- viability, T/C [28]: 80%
- viability, T/C [29]: 65.8%
- viability, T/C [30]: 30.6%
- viability, T/C [31]: 83.1%
- viability, T/C [32]: 84.8%
- viability, T/C [33]: 61.8%
- viability, T/C [34]: 74.2%
- viability, T/C [35]: 65.9%
- viability, T/C [36]: 18.4%
- viability, T/C [37]: 72.1%
- viability, T/C [38]: 69.6%
- viability, T/C [39]: 38.8%
- viability, T/C [40]: 59.3%
- viability, T/C [41]: 39.6%
- viability, T/C [42]: 14.9%

Compound: CCCS(=O)(=O)Nc1ccc(F)c(C(=O)c2c[nH]c3ncc(-c4ccc(Cl)cc4)cc23)c1F
- viability, T/C (compound 0.0316 µM): 77% and 97.8%
- viability, T/C (compound 0.1 µM): 91% and 84.7%
- viability, T/C (compound 0.316 µM): 110% and 111%
- viability, T/C (compound 1 µM): 120% and 96.2%
- viability, T/C (compound 3.16 µM): 88.7% and 98.1%
- viability, T/C (compound 10 µM): 5.61% and 4.11%
- IC50 (curve of compound): 5.4 µM and 5.68 µM

Compound: Cn1nccc1Nc1nccc(-c2ccn(C(CO)c3ccc(Cl)c(F)c3)c(=O)c2)n1 (stereo not given) + COc1c(OCCCN2CCOCC2)ccc2c3n(c(=NC(=O)c4cnc(N)nc4)nc12)CCN3
- IC50 (curve of first compound, second compound 0.00316 µM): 0.238 µM
- IC50 (curve of first compound, second compound 0.01 µM): 0.0973 µM
- IC50 [1]: < 0.0316 µM
- IC50 [2]: < 0.0316 µM
- IC50 [3]: < 0.0316 µM
- IC50 [4]: < 0.0316 µM
- viability, T/C (second compound 0.00316 µM, first compound 0.0316 µM): 70.2%
- viability, T/C (second compound 0.00316 µM, first compound 0.1 µM): 56.1%
- viability, T/C (second compound 0.00316 µM, first compound 0.316 µM): 47.6%
- viability, T/C (second compound 0.00316 µM, first compound 1 µM): 32.4%
- viability, T/C (second compound 0.00316 µM, first compound 3.16 µM): 34.9%
- viability, T/C (second compound 0.00316 µM, first compound 10 µM): 13.1%
- viability, T/C (second compound 0.01 µM, first compound 0.0316 µM): 64.3%
- viability, T/C (second compound 0.01 µM, first compound 0.1 µM): 48.8%
- viability, T/C (second compound 0.01 µM, first compound 0.316 µM): 38.8%
- viability, T/C (second compound 0.01 µM, first compound 1 µM): 26.3%
- viability, T/C (second compound 0.01 µM, first compound 3.16 µM): 22.4%
- viability, T/C (second compound 0.01 µM, first compound 10 µM): 14.3%
- viability, T/C [7]: 31.7%
- viability, T/C [8]: 28.7%
- viability, T/C [9]: 17.7%
- viability, T/C [10]: 17.9%
- viability, T/C [11]: 17.3%
- viability, T/C [12]: 9.88%
- viability, T/C [13]: 17.7%
- viability, T/C [14]: 13.6%
- viability, T/C [15]: 10.8%
- viability, T/C [16]: 8.53%
- viability, T/C [17]: 5.16%
- viability, T/C [18]: 1.19%
- viability, T/C [19]: 9.14%
- viability, T/C [20]: 5.37%
- viability, T/C [21]: 3.27%
- viability, T/C [22]: 2.55%
- viability, T/C [23]: 0.85%
- viability, T/C [24]: 0.46%
- viability, T/C [25]: 4.18%
- viability, T/C [26]: 2.97%
- viability, T/C [27]: 1.36%
- viability, T/C [28]: 1.15%
- viability, T/C [29]: 0.78%
- viability, T/C [30]: 0.48%

Compound: CNC(=O)c1ccc(N2C(=S)N(c3ccc(C#N)c(C(F)(F)F)c3)C(=O)C2(C)C)cc1F + Cc1nc(NC(=O)N2CCCC2C(N)=O)sc1-c1ccnc(C(C)(C)C(F)(F)F)c1
- IC50 [1]: > 10 µM
- IC50 [2]: > 10 µM
- IC50 [3]: < 0.0316 µM
- IC50 [4]: < 0.0316 µM
- IC50 [5]: < 0.0316 µM
- IC50 [6]: < 0.0316 µM
- viability, T/C [7]: 81.8%
- viability, T/C [8]: 78.2%
- viability, T/C [9]: 103%
- viability, T/C [10]: 75%
- viability, T/C [11]: 93.5%
- viability, T/C [12]: 84.2%
- viability, T/C [13]: 70.8%
- viability, T/C [14]: 52.1%
- viability, T/C [15]: 71.5%
- viability, T/C [16]: 61.4%
- viability, T/C [17]: 83.7%
- viability, T/C [18]: 77.1%
- viability, T/C [19]: 27.3%
- viability, T/C [20]: 59.3%
- viability, T/C [21]: 46.2%
- viability, T/C [22]: 61.7%
- viability, T/C [23]: 75.8%
- viability, T/C [24]: 45.7%
- viability, T/C [25]: 26.3%
- viability, T/C [26]: 30.4%
- viability, T/C [27]: 24.8%
- viability, T/C [28]: 37.4%
- viability, T/C [29]: 23.9%
- viability, T/C [30]: 25.1%
- viability, T/C [31]: 18.9%
- viability, T/C [32]: 17.4%
- viability, T/C [33]: 12.7%
- viability, T/C [34]: 17.8%
- viability, T/C [35]: 14%
- viability, T/C [36]: 9.85%
- viability, T/C [37]: 9.39%
- viability, T/C [38]: 8.74%
- viability, T/C [39]: 8.22%
- viability, T/C [40]: 8.91%
- viability, T/C [41]: 8.18%
- viability, T/C [42]: 5.56%

Compound: CC(=O)c1c(C)c2cnc(Nc3ccc(N4CCNCC4)cn3)nc2n(C2CCCC2)c1=O
- viability, T/C (compound 0.000316 µM): 69.4% and 92% and 91.1%
- viability, T/C (compound 0.001 µM): 92.5% and 97.7% and 88.2%
- viability, T/C (compound 0.00316 µM): 86.3% and 105% and 87%
- viability, T/C (compound 0.01 µM): 105% and 93.1% and 75.4%
- viability, T/C (compound 0.0316 µM): 99.9% and 90.4% and 103%
- viability, T/C (compound 0.1 µM): 68.8% and 77.6% and 68.9%
- IC50 (curve of compound): > 0.1 µM
